Measurements published in article PMC7413254 (Nature Communications, 2020).

Columns and labels:
Assay type in all cases: cell-based
PfCRT^Dd2 [1] = molecular target: T1, PfCRT^Dd2 (Plasmodium falciparum, UniProt Q9N623, A220S/I356T/K76T/M74I/N326S/N75E/Q271E/R371I); assay: cell-based; details: for PfCRT-mediated [3H]CQ transport, trans-stimulation (% PfCRTDd2 control): PfCRTDd2 oocytes, normalised to oocyte type control; for [3H]CQ transport (% PfCRTDd2 control), trans-stimulation, PfCRTDd2: PfCRT-mediated component (background subtracted), mean ± SEM, SEM
Procedure, shortened: (§1)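 Transport measured in Xenopus oocytes expressing the transporters, 1.5 h at 27.5 °C in ND96 pH 5.5 unless noted. For trans-stimulation, VF-6 injected in 25 nL ND96 at pH 5.0–7.0 or Na^+-free (choline) buffer; intracellular levels based on ~400 nL oocyte volume. Ten oocytes per treatment, ≥4 experiments.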

PfCRT^Ecu1110 [2] = molecular target: T2, PfCRT^Ecu1110 (Plasmodium falciparum, UniProt Q9N623, A220S/I356L/K76T/N326D); assay: cell-based; details: for PfCRT-mediated [3H]CQ transport, trans-stimulation (% PfCRTEcu1110 control): PfCRTEcu1110 oocytes, normalised to oocyte type control; for [3H]CQ transport (% PfCRTDd2 control), trans-stimulation, PfCRTEcu1110: PfCRT-mediated component (background subtracted), sheet title says normalised to PfCRTDd2 control, mean ± SEM, SEM
Procedure, shortened: as §1

PfCRT^3D7 = PfCRT^3D7 (Plasmodium falciparum, UniProt Q8IBZ9); assay: cell-based; details: PfCRT3D7 oocytes, normalised to oocyte type control
Procedure, shortened: as §1

PfCRT^Dd2 [3] = molecular target: T1, PfCRT^Dd2; assay: [3H]CQ uptake into Xenopus oocytes, cis-inhibition by unlabelled solute; details: PfCRTDd2 oocytes, background [3H]CQ accumulation subtracted, normalised to oocyte type control
Procedure, shortened: (§2)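 Assay buffer ND96 (10 mM MES, 10 mM Tris-base) held at pH 5.5 to mimic vacuole lumen; uptake measured inward from this acidic medium over 1.5 h at 27.5 °C.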

PfCRT^Ecu1110 [4] = molecular target: T2, PfCRT^Ecu1110; assay: as above; details: for PfCRT-mediated [3H]CQ transport, cis-inhibition (% PfCRTEcu1110 control): PfCRTEcu1110 oocytes, background [3H]CQ accumulation subtracted, normalised to oocyte type control; for [3H]CQ transport (% PfCRTEcu1110 control), cis-inhibition, PfCRTEcu1110: PfCRT-mediated component (background subtracted), sheet title says normalised to PfCRTDd2 control, mean ± SEM, SEM
Procedure, shortened: as §2

[5] = [test solute]i = 5 mM (intracellular)
[6] = [test solute]i = 45 mM (intracellular; 30 mM for some solutes due to solubility)
[7] = [test solute]i = 5 mM (injected)
[8] = [test solute]i = 45 mM (30 mM for some solutes due to solubility)

Sequence of PfCRT^3D7 (Q8IBZ9 59-398): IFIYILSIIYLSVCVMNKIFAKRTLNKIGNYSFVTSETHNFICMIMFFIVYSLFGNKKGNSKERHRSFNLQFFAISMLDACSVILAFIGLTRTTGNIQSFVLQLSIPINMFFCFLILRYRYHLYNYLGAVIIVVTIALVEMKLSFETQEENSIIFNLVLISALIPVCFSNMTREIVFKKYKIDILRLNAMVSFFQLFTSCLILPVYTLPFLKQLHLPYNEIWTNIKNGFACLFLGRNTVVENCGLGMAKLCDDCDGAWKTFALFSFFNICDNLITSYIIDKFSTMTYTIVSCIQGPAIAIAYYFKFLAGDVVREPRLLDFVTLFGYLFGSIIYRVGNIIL
T1 sequence (Q9N623 whole entry A220S/I356T/K76T/M74I/N326S/N75E/Q271E/R371I): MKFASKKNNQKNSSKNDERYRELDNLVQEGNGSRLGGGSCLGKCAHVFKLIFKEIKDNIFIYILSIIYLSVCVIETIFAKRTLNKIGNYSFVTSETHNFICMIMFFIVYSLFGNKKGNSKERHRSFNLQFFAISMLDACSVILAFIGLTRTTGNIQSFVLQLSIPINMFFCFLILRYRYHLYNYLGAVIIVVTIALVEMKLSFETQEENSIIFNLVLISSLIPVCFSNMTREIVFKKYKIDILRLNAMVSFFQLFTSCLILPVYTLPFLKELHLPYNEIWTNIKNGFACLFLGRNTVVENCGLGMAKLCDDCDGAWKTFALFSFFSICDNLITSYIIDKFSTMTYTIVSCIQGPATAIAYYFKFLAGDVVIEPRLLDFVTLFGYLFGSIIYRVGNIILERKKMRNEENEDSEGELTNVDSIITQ
T2 sequence (Q9N623 whole entry A220S/I356L/K76T/N326D): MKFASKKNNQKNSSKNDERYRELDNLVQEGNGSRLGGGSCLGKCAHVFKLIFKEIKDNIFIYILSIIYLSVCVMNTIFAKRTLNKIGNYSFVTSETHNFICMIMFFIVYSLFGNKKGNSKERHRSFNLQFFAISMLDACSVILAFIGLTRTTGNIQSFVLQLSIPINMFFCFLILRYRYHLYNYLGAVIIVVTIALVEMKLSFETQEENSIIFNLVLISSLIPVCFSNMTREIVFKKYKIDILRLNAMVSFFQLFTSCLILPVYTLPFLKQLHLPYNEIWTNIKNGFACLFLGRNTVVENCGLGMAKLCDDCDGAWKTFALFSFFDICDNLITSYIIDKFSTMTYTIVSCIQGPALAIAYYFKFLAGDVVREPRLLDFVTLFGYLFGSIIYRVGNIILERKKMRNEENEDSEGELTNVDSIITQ

Substance	PfCRT-mediated [3H]CQ transport, trans-stimulation (% PfCRTDd2 control) (PfCRT^Dd2 [1]; [5])	PfCRT-mediated [3H]CQ transport, trans-stimulation (% PfCRTDd2 control) (PfCRT^Dd2 [1]; [6])	[3H]CQ transport (% PfCRTDd2 control), trans-stimulation, PfCRTDd2 (PfCRT^Dd2 [1]; [7])	[3H]CQ transport (% PfCRTDd2 control), trans-stimulation, PfCRTDd2 (PfCRT^Dd2 [1]; [8])	PfCRT-mediated [3H]CQ transport, trans-stimulation (% PfCRTEcu1110 control) (PfCRT^Ecu1110 [2]; [5])	PfCRT-mediated [3H]CQ transport, trans-stimulation (% PfCRTEcu1110 control) (PfCRT^Ecu1110 [2]; [6])	[3H]CQ transport (% PfCRTDd2 control), trans-stimulation, PfCRTEcu1110 (PfCRT^Ecu1110 [2]; [7])	[3H]CQ transport (% PfCRTDd2 control), trans-stimulation, PfCRTEcu1110 (PfCRT^Ecu1110 [2]; [8])	PfCRT-mediated [3H]CQ transport, trans-stimulation (% PfCRT3D7 control) (PfCRT^3D7; [5])	PfCRT-mediated [3H]CQ transport, trans-stimulation (% PfCRT3D7 control) (PfCRT^3D7; [6])	PfCRT-mediated [3H]CQ transport, cis-inhibition (% PfCRTDd2 control) (PfCRT^Dd2 [3]; [test solute] = 0.5 mM)	PfCRT-mediated [3H]CQ transport, cis-inhibition (% PfCRTDd2 control) (PfCRT^Dd2 [3]; [test solute] = 1 mM)	PfCRT-mediated [3H]CQ transport, cis-inhibition (% PfCRTDd2 control) (PfCRT^Dd2 [3]; [test solute] = 2 mM)	PfCRT-mediated [3H]CQ transport, cis-inhibition (% PfCRTEcu1110 control) (PfCRT^Ecu1110 [4]; [test solute] = 0.5 mM)	PfCRT-mediated [3H]CQ transport, cis-inhibition (% PfCRTEcu1110 control) (PfCRT^Ecu1110 [4]; [test solute] = 1 mM)	PfCRT-mediated [3H]CQ transport, cis-inhibition (% PfCRTEcu1110 control) (PfCRT^Ecu1110 [4]; [test solute] = 2 mM)	[3H]CQ transport (% PfCRTEcu1110 control), cis-inhibition, PfCRTEcu1110 (PfCRT^Ecu1110 [4]; [test solute] = 0.5 mM)	[3H]CQ transport (% PfCRTEcu1110 control), cis-inhibition, PfCRTEcu1110 (PfCRT^Ecu1110 [4]; [test solute] = 1 mM)	[3H]CQ transport (% PfCRTEcu1110 control), cis-inhibition, PfCRTEcu1110 (PfCRT^Ecu1110 [4]; [test solute] = 2 mM)
EFTPPVQ [EQ-7]	96 ± 3.3 % PfCRTDd2 control	112 ± 3.2 % PfCRTDd2 control	96 ± 3.3 % PfCRTDd2 control	112 ± 3.2 % PfCRTDd2 control	129 ± 4.5 % PfCRTEcu1110 control	136 ± 2.7 % PfCRTEcu1110 control	39 ± 1.5 % PfCRTEcu1110 control	41 ± 1.8 % PfCRTEcu1110 control	136 ± 4.2 % PfCRT3D7 control	188 ± 4.7 % PfCRT3D7 control	40 ± 1.1 % PfCRTDd2 control	28 ± 0.2 % PfCRTDd2 control	17 ± 1.1 % PfCRTDd2 control	44 ± 1.4 % PfCRTEcu1110 control	32 ± 2.4 % PfCRTEcu1110 control	22 ± 2.9 % PfCRTEcu1110 control	14 ± 0.6 % PfCRTEcu1110 control	10 ± 0.5 % PfCRTEcu1110 control	8.0 ± 0.03 % PfCRTEcu1110 control
HFDLS [HS-5]	100 ± 3.2 % PfCRTDd2 control	112 ± 1.1 % PfCRTDd2 control	100 ± 3.2 % PfCRTDd2 control	112 ± 1.1 % PfCRTDd2 control	120 ± 2.1 % PfCRTEcu1110 control	131 ± 1.8 % PfCRTEcu1110 control	36 ± 1.3 % PfCRTEcu1110 control	40 ± 1.4 % PfCRTEcu1110 control	139 ± 4.1 % PfCRT3D7 control	166 ± 3.2 % PfCRT3D7 control	20 ± 0.1 % PfCRTDd2 control	9 ± 0.2 % PfCRTDd2 control	3.2 ± 0.1 % PfCRTDd2 control	20 ± 1.3 % PfCRTEcu1110 control	–	4.3 ± 0.1 % PfCRTEcu1110 control	–	3.0 ± 0.04 % PfCRTEcu1110 control	1.0 ± 0.06 % PfCRTEcu1110 control
PHFDLS [PS-6]	96 ± 4.7 % PfCRTDd2 control	95 ± 4.6 % PfCRTDd2 control	96 ± 4.7 % PfCRTDd2 control	95 ± 4.6 % PfCRTDd2 control	121 ± 4.5 % PfCRTEcu1110 control	138 ± 4.6 % PfCRTEcu1110 control	37 ± 1.4 % PfCRTEcu1110 control	43 ± 1.3 % PfCRTEcu1110 control	140 ± 4.3 % PfCRT3D7 control	188 ± 4.5 % PfCRT3D7 control	46 ± 1.0 % PfCRTDd2 control	32 ± 1.1 % PfCRTDd2 control	17 ± 0.3 % PfCRTDd2 control	41 ± 2.5 % PfCRTEcu1110 control	33 ± 1.7 % PfCRTEcu1110 control	21 ± 1.6 % PfCRTEcu1110 control	–	–	7.0 ± 0.01 % PfCRTEcu1110 control
DLPVG [DG-5]	98 ± 1.0 % PfCRTDd2 control	113 ± 1.1 % PfCRTDd2 control	98 ± 1.0 % PfCRTDd2 control	113 ± 1.1 % PfCRTDd2 control	115 ± 1.5 % PfCRTEcu1110 control	118 ± 1.1 % PfCRTEcu1110 control	35 ± 1.5 % PfCRTEcu1110 control	36 ± 1.3 % PfCRTEcu1110 control	128 ± 2.2 % PfCRT3D7 control	146 ± 3.2 % PfCRT3D7 control	29 ± 0.6 % PfCRTDd2 control	22 ± 1.3 % PfCRTDd2 control	11 ± 0.1 % PfCRTDd2 control	46 ± 1.8 % PfCRTEcu1110 control	33 ± 2.7 % PfCRTEcu1110 control	–	14 ± 0.5 % PfCRTEcu1110 control	10 ± 0.6 % PfCRTEcu1110 control	5.0 ± 0.05 % PfCRTEcu1110 control
HVDPENFRL [HL-9]	97 ± 2.0 % PfCRTDd2 control	98 ± 3.3 % PfCRTDd2 control	–	–	98 ± 3.6 % PfCRTEcu1110 control	96 ± 2.1 % PfCRTEcu1110 control	–	–	98 ± 3.5 % PfCRT3D7 control	97 ± 3.1 % PfCRT3D7 control	38 ± 1.0 % PfCRTDd2 control	31 ± 0.3 % PfCRTDd2 control	9 ± 0.8 % PfCRTDd2 control	41 ± 2.5 % PfCRTEcu1110 control	35 ± 2.6 % PfCRTEcu1110 control	28 ± 0.1 % PfCRTEcu1110 control	–	–	–
